Target: T1, GLIC (Gloeobacter violaceus ligand-gated ion channel) (Gloeobacter violaceus, UniProt Q7NDN8)
T1 sequence (Q7NDN8 44-359): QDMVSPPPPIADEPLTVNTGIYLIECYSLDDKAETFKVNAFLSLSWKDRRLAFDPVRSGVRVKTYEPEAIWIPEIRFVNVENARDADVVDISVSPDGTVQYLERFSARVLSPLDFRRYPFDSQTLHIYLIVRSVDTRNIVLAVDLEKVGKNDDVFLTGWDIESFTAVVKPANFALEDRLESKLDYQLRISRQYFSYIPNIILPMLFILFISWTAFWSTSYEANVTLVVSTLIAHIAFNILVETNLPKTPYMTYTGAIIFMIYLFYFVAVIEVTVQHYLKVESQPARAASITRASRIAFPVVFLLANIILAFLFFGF
Test: two-electrode voltage clamp in Xenopus oocytes, inhibition of proton-activated
Type: cell-based

`FC(F)OC(F)C(F)(F)F` (stereo not shown) [DSF, desflurane] was tested, and the IC50 was 1100 µM.
